According to patent publication US9462808B2, “Pesticidal compositions” (Syngenta Participants AG, priority 2010, dated 2016):
Read-outs that look alike come from different tables or passages of the source.

Legend:
Assay type in all cases: in vivo
[1] = system: Rhopalosiphum padi (cereal aphid); experiment: Activity against Rhopalosiphum padi (cereal aphid) on wheat, selected safeners at different mixture ratios, 7 DAA (Example B3); conditions: AI rate 12.5 ppm
Description: One replicate consisted of 4 wheat plants per pot. […] Test solutions contained the formulated test compounds, the adjuvant Mero (0.1% v/v), and selected safeners at different mixture ratios. 7d after application aphid mortality and was evaluated.

[2] = system: Wheat, Triticium durum (Poaceae) var. Arina; experiment: Reduction of phytotoxicity by safeners applied as seed treatment with compound of formula I on wheat (Example B4)
Description: Test compounds: compound P1.2 according to Table P1, as SC 050; Safener 1=cloquintocet-mexyl, as WP 25, Safener 2=mefenpyr-diethyl as WP 25, Safener 3═N-(2-methoxybenzoyl)-4-[(methylaminocarbonyl)amino]benzenesulfonamide, as SC 100. • Plants: Wheat, Triticium durum (Poaceae) var. Arina • Seed treatment: The seeds were treated by shaking the seeds with a slurry for 30 seconds in a glass flask. Treatments were 10% overdosed to compensate for substance adhering to the flask. In a first step, compound P1.2 was treated on the seeds. Afterwards the safeners were treated on the dried seeds. […] The loading rates of the safeners were 0.5, 0.1 and 0.025 mg a.i./seed. Soil: “Drench soil”, loamy sand, prefertilised with 1 g/I soil of Landor 13.1.3.21. • Procedures: 9-cm pots were filled with 330 ml of Drench soil loamy sand and the seeds were placed into the soil in about 5 mm beneath the soil surface. • Conditions: During the growth period the plants were kept in a randomised fashion in a greenhouse chamber at 25° C. during daytime, 23° C. during night, 50-60% rH, a 14-hour photoperiod and artificial lighting when natural light fell below 20 kLux. During the exposure the assay was kept at 22° C. • Assessments: 14 days after emergence, the phytotoxicity was recorded.

[3] = system: Rhopalosiphum padi (cereal aphid); experiment: Activity against Rhopalosiphum padi (cereal aphid) on wheat, spray with safener cloquintocet, 6 days after application (Example B1); conditions: 144 h, test compound 25 ppm, adjuvant Mero 0.1% v/v, 6 days after application, Abbott's formula, read-out: Efficacy (% mortality) against cereal aphids (Rhopalosiphum padi)
Description: One replicate consisted of 4 wheat plants per pot. […] 9 days after seeding all wheat plants (10replicates) were sprayed with respective test solutions. […] 6 days after application aphid mortality and phytotoxicity were evaluated. […] Additionally the average plant height per replicate was measured.

[4] = system: Nilaparvata lugens (brown plant hopper, BPH); experiment: Activity against Nilaparvata lugens (brown plant hopper, BPH) on rice, spray with safeners, 7 d after application (Example B2); conditions: 168 h, read-out: % mortality, corr.; for mortality at 25 ppm: 25 ppm AI; for mortality at 50 ppm: 50 ppm AI; for mortality at 100 ppm: 100 ppm AI; for mortality at 200 ppm: 200 ppm AI
Description: Eight replicates (pots with rice plants) were sprayed with respective test solutions. Test solutions contained the formulated test compound and the safener cloquintocet and N-(2-methoxybenzoyl)-4-[(methylaminocarbonyl)amino]-benzenesulfonamide at different ratios. 4 pots were infested with plant hopper nymphs right after application. 7d after application BPH mortality and plant safety were evaluated. […] Assessment on plant safety was done by measuring the average plant height per replicate.

CCOC(=O)OC1=C(c2c(C)cc(C)cc2C)C(=O)N(C)C12CCN(OC)CC2 [Compound P1.2, Carbonic acid ethyl ester 8-methoxy-1-methyl-2-oxo-3-(2,4,6-trimethyl-phenyl)-1,8-diaza-spiro[4.5]dec-3-en-4-yl ester] was tested, and the “Efficacy (% mortality) against cereal aphids (Rhopalosiphum padi) 7DAA” value (“Efficacy (% mortality)” below) ([1]; + Cloquintocet-mexyl, ratio AI:safener 1:2) was 94%, the “Efficacy (% mortality)” value ([1]; + Cloquintocet-mexyl, ratio AI:safener 1:4) was 91% and the “Efficacy (% mortality)” value ([1]; + Cloquintocet-mexyl, ratio AI:safener 1:8) was 91%. The “Efficacy (% mortality)” value ([1]; + Mefenpyr-diethyl, ratio AI:safener 1:2) was 97%, the “Efficacy (% mortality)” value ([1]; + Mefenpyr-diethyl, ratio AI:safener 1:4) was 92% and the “Efficacy (% mortality)” value ([1]; + Mefenpyr-diethyl, ratio AI:safener 1:8) was 92%. For the same molecule, the “Efficacy (% mortality)” value ([1]; + Safener 2 (N-(2-methoxybenzoyl)-4-[(methylaminocarbonyl)amino]benzenesulfonamide), ratio AI:safener 1:2) was 97%, the “Efficacy (% mortality)” value ([1]; + Safener 2 (N-(2-methoxybenzoyl)-4-[(methylaminocarbonyl)amino]benzenesulfonamide), ratio AI:safener 1:4) was 95% and the “Efficacy (% mortality)” value ([1]; + Safener 2 (N-(2-methoxybenzoyl)-4-[(methylaminocarbonyl)amino]benzenesulfonamide), ratio AI:safener 1:8) was 97%. The “Efficacy (% mortality)” value ([1]; no safener, spray on wheat, Abbott's formula) was 98%, the “Phytotoxicity after seed treatment” value ([2]; P1.2 0.1 mg a.i./seed with safeners (cloquintocet-mexyl, mefenpyr-diethyl, N-(2-methoxybenzoyl)-4-[(methylaminocarbonyl)amino]benzenesulfonamide), wheat, 14 days after emergence) was “safeners protect the plants from the adverse effects” and the “Phytotoxicity (%) of compound P1.2 on wheat, control without safener” value ([2]; seed treatment, 1 mg compound P1.2, without safener) was “Control: application of 1 mg compound P1.2. without safener results in 64.3% phyotoxicity”. It also gave a mortality at 25 ppm ([3]; ratio AI:safener cell blank (no safener), wheat) of 97.4%, a mortality at 25 ppm ([3]; safener cloquintocet, ratio AI:safener 1:1, wheat) of 93.4% and a mortality at 25 ppm ([3]; safener cloquintocet, ratio AI:safener 1:2, wheat) of 94.4%. For the same molecule, the mortality at 12.5 ppm ([4]; 12.5 ppm AI, Safener 2, ratio AI:safener 0.9:1, 7 d after application) was 0%, the mortality at 25 ppm ([4]; Cloquintocet, ratio AI:safener 1.9:1, 7 d after application) was 30% and the mortality at 25 ppm ([4]; Safener 2, ratio AI:safener 1.9:1, 7 d after application) was 3%. It also gave a mortality at 50 ppm ([4]; Cloquintocet, ratio AI:safener 1.25:1, 7 d after application) of 57%, a mortality at 50 ppm ([4]; Safener 2, ratio AI:safener 1.25:1, 7 d after application) of 42% and a mortality at 100 ppm ([4]; Cloquintocet, ratio AI:safener 7.5:1, 7 d after application) of 78%. For the same molecule, the mortality at 100 ppm ([4]; Safener 2, ratio AI:safener 7.5:1, 7 d after application) was 68%, the mortality at 200 ppm ([4]; Cloquintocet, ratio AI:safener 15:1, 7 d after application) was 93% and the mortality at 200 ppm ([4]; Safener 2, ratio AI:safener 15:1, 7 d after application) was 85%.
